This note sets out measurements from PubChem BioAssay (NCI).

“And” between values parts separate entries of the source, which are not always exact repeats. Identical values can stand only once.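 Method: 48-hour compound exposure of cells in 96-well plates, five concentrations, linear interpolation of endpoints. The concentration for 50% growth inhibition is given as GI50. Definition used: TGI = concentration required for complete inhibition of growth.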

Among the test systems are SF-295 CNS; SK-MEL-28 melanoma; LOX IMVI melanoma; SR leukemia; ACHN renal; HL-60(TB) leukemia; CAKI-1 renal; OVCAR-3 ovarian; NCI-H23 lung; NCI-H460 lung.
Common to all, as to experiment: NCI tumour cell line growth inhibition, 48 h

For the compound `COc1ccccc1/C=C/C(=O)c1ccccc1`, the GI50 in the assay on SF-295 CNS is 14.8 µM; in the assay on SK-MEL-28 melanoma it was 16.6 µM; with LOX IMVI melanoma it was 2.06 µM; with SR leukemia, 1.77 µM; with ACHN renal, 5.04 µM; with HL-60(TB) leukemia, 2.18 µM. Moreover, the GI50 was 6.3 µM with CAKI-1 renal, 5.92 µM in the assay on OVCAR-3 ovarian, 15.2 µM with NCI-H23 lung and 13.7 µM in the assay with NCI-H460 lung. In addition, the TGI in the assay on SF-295 CNS worked out at 30.9 µM; in the assay on SK-MEL-28 melanoma, 30.8 µM; with LOX IMVI melanoma it was 5.07 µM; in the assay on ACHN renal it was 15.2 µM; in the assay with HL-60(TB) leukemia, 20.9 µM; in the assay on CAKI-1 renal, 18.6 µM. Further, the TGI with OVCAR-3 ovarian was determined as 15.2 µM; with NCI-H23 lung, 36.6 µM; in the assay with NCI-H460 lung, 31.9 µM.

On to `Cc1sc2nc3c4ccccc4c(NCCCN(C)C)nn3c(=O)c2c1C`, for which the GI50 with SF-295 CNS was 8.25 µM; with SK-MEL-28 melanoma, 1.73 µM; with LOX IMVI melanoma, 2 µM; in the assay with SR leukemia, 1.33 µM; with ACHN renal, 6.95 µM; in the assay on HL-60(TB) leukemia it was 9.98 µM. Moreover, the GI50 in the assay with CAKI-1 renal is 8.87 µM; with OVCAR-3 ovarian, 11.3 µM; with NCI-H23 lung, 8.45 µM; with NCI-H460 lung, 1.08 µM. Moreover, the TGI came out at 26.5 µM with SF-295 CNS; 3.21 µM in the assay with SK-MEL-28 melanoma; 6.85 µM in the assay on LOX IMVI melanoma; 3.52 µM in the assay with SR leukemia; 20.4 µM with ACHN renal; 25.8 µM in the assay on HL-60(TB) leukemia. The TGI with CAKI-1 renal was 23.5 µM; in the assay with OVCAR-3 ovarian, 24.3 µM; in the assay on NCI-H23 lung, 23 µM; with NCI-H460 lung, 5.35 µM.

Turning to `CCOC(=O)c1s/c(=N\Nc2nc3ccccc3cc2C2OCCO2)n(Cc2ccccc2)c1C`, the TGI in the assay on SF-295 CNS, with SK-MEL-28 melanoma, in the assay on LOX IMVI melanoma, in the assay on SR leukemia, in the assay with ACHN renal and in the assay on HL-60(TB) leukemia was > 100 µM in each case. In addition, the TGI with CAKI-1 renal, in the assay on OVCAR-3 ovarian, with NCI-H23 lung and in the assay with NCI-H460 lung was > 100 µM throughout.

Regarding `N#CCCN(CCC#N)c1ccc(C(Sc2ccccc2)C(NC(=O)c2cc([N+](=O)[O-])ccc2Cl)C(=O)Sc2ccccc2)cc1` (centres undefined), the TGI in the assay on SF-295 CNS is 13.1 µM; in the assay with SK-MEL-28 melanoma, 7.06 µM and 14.2 µM; with LOX IMVI melanoma it was 5.71 µM; in the assay on SR leukemia, 3.9 µM; with ACHN renal, 16.3 µM; with HL-60(TB) leukemia, 3.62 µM and 2.29 µM. The TGI with CAKI-1 renal was 5.71 µM and 6.5 µM; in the assay with OVCAR-3 ovarian, 8.36 µM and 7.63 µM; in the assay with NCI-H23 lung, 13.5 µM; in the assay with NCI-H460 lung it was 16.8 µM. The GI50 with SK-MEL-28 melanoma is 3.24 µM; in the assay with ACHN renal, 2.81 µM; with HL-60(TB) leukemia it was 0.416 µM; in the assay on OVCAR-3 ovarian, 2.14 µM; in the assay with NCI-H23 lung it was 2.84 µM.

As for `CCOP(=O)(OCC)OC(C#N)c1ccc(-c2ccccc2)cc1` (centres undefined), the TGI was > 100 µM with SF-295 CNS; > 100 µM in the assay with SK-MEL-28 melanoma; 29.1 µM in the assay with LOX IMVI melanoma; 59 µM with SR leukemia; > 100 µM in the assay with ACHN renal; 36.9 µM in the assay on HL-60(TB) leukemia. Further, the TGI in the assay with CAKI-1 renal is 47.6 µM; in the assay with OVCAR-3 ovarian, 39.1 µM; in the assay with NCI-H23 lung it was > 100 µM; in the assay with NCI-H460 lung, 36.3 µM.

As for `NC(N)=NCCC1OC(=O)C2=C1c1c(O)ccc3nccc(c13)O2` (centres undefined), the GI50 in the assay with SF-295 CNS, with SK-MEL-28 melanoma, with LOX IMVI melanoma, in the assay with SR leukemia, with ACHN renal and in the assay on HL-60(TB) leukemia was > 100 µM in each case. The GI50 with CAKI-1 renal, with OVCAR-3 ovarian, in the assay with NCI-H23 lung and with NCI-H460 lung was > 100 µM throughout. In addition, the TGI in the assay with SF-295 CNS, with SK-MEL-28 melanoma, in the assay on LOX IMVI melanoma, with SR leukemia, in the assay on ACHN renal and with HL-60(TB) leukemia was > 100 µM in each case. Moreover, the TGI with CAKI-1 renal, with OVCAR-3 ovarian, with NCI-H23 lung and with NCI-H460 lung was > 100 µM throughout.

As for `CCOC(=O)C1(C#N)C(c2ccccc2)CC(O)(c2ccc(Cl)cc2)C(C(=O)c2ccc(Cl)cc2)C1c1ccccc1` (centres undefined), the TGI in the assay on SF-295 CNS, in the assay with SK-MEL-28 melanoma, in the assay with LOX IMVI melanoma, with SR leukemia, in the assay on ACHN renal and with HL-60(TB) leukemia was > 100 µM each time. Also, the TGI in the assay on CAKI-1 renal, with OVCAR-3 ovarian, in the assay on NCI-H23 lung and in the assay with NCI-H460 lung was > 100 µM each time.

In the case of `C/C(CCc1ccccc1)=N\NC(N)=S`, the TGI with SF-295 CNS, in the assay on SK-MEL-28 melanoma, with LOX IMVI melanoma, in the assay with SR leukemia, with ACHN renal and in the assay with HL-60(TB) leukemia was > 100 µM throughout. Moreover, the TGI in the assay on CAKI-1 renal, in the assay with OVCAR-3 ovarian, in the assay with NCI-H23 lung and in the assay with NCI-H460 lung was > 100 µM throughout.

Consider `COC(=O)C1=C(C(=O)OC)SC(=CC#CC=C2SC(C(=O)OC)=C(C(=O)OC)S2)S1`, for which the TGI is 11.8 µM with SF-295 CNS; > 63.2 µM in the assay with SK-MEL-28 melanoma; 44.2 µM in the assay with LOX IMVI melanoma; > 100 µM with SR leukemia; 34.6 µM in the assay with ACHN renal; > 100 µM in the assay on HL-60(TB) leukemia. Moreover, the TGI was > 68.3 µM in the assay on CAKI-1 renal, 17 µM in the assay on OVCAR-3 ovarian, 17.8 µM with NCI-H23 lung and > 100 µM with NCI-H460 lung.

Consider `O=C(O)C1CCCCC1C(=O)O.[NH-]C1CCC1.[NH2-].[Pt+2]` (centres undefined), for which the GI50 was 42.6 µM in the assay with SF-295 CNS; 15.9 µM in the assay with SK-MEL-28 melanoma; 6.35 µM with LOX IMVI melanoma; 3.72 µM in the assay with SR leukemia; 16.4 µM with ACHN renal; 5.98 µM with HL-60(TB) leukemia. Also, the GI50 in the assay with CAKI-1 renal was 2.61 µM; in the assay on OVCAR-3 ovarian, 15.8 µM; with NCI-H23 lung, 22.4 µM; with NCI-H460 lung it was 22.7 µM. The TGI is > 100 µM with SF-295 CNS; 31.4 µM with SK-MEL-28 melanoma; 23.3 µM in the assay with LOX IMVI melanoma; > 100 µM with SR leukemia; 31.3 µM with ACHN renal; 52.8 µM in the assay with HL-60(TB) leukemia. Besides, the TGI was 17.4 µM in the assay on CAKI-1 renal, 30.4 µM in the assay with OVCAR-3 ovarian, > 100 µM in the assay with NCI-H23 lung and > 100 µM in the assay on NCI-H460 lung.
